In ChEMBL document CHEMBL1909046, “DrugMatrix in vitro pharmacology data”:

How the values were obtained:
[1] = molecular target: T1, Cholecystokinin receptor type A (Homo sapiens, UniProt P32238); format: cell membranes, Membrane; conditions: 1321-n1; note: in other assays of this panel Not Active means under 50% inhibition at 10 µM
T1 sequence (P32238 whole entry): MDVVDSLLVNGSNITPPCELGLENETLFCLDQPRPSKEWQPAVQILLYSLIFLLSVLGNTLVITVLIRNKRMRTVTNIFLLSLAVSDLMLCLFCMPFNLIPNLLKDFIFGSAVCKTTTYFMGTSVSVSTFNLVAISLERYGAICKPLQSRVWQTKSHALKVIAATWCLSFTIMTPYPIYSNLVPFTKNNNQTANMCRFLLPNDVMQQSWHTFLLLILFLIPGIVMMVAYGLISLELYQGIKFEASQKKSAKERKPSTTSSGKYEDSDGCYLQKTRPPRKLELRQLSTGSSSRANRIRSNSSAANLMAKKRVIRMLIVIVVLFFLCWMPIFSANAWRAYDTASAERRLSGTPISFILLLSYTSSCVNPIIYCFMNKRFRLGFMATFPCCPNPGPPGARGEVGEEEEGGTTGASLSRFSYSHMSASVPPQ

[2] = molecular target: T2, Neutrophil elastase (Homo sapiens, UniProt P08246); format: tissue-based;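 note: inhibition of neutrophil elastase enzyme activity, measured with a p-nitroanilide-linked peptide substrate; in other assays of this panel Not Active means under 50% inhibition at 10 µM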
T2 sequence (P08246 whole entry): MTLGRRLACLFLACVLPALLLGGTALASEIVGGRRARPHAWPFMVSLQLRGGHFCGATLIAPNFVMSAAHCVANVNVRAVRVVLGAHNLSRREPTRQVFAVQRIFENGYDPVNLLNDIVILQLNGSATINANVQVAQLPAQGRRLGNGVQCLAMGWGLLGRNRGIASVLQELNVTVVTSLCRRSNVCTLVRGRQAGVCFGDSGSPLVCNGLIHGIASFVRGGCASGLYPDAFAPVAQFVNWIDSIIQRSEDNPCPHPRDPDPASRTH

[3] = molecular target: Carbonic anhydrase 2 (Homo sapiens, UniProt P00918); test: DRUGMATRIX: Carbonic Anhydrase II enzyme inhibition (substrate: 4-Nitrophenyl acetate (4-NPA)); format: tissue-based, Erythrocyte; conditions: erythrocyte; Not Active = under 50% inhibition at 10 µM
[4] = molecular target: Voltage-gated inwardly rectifying potassium channel KCNH2 (Homo sapiens, UniProt Q12809); conditions: hek293; note: in other assays of this panel Not Active means under 50% inhibition at 10 µM
[5] = DRUGMATRIX: GABAA, Muscimol, Central radioligand binding (ligand: [3H] Muscimol); format: cell membranes, Rattus norvegicus, Wistar, Brain, Membrane; conditions: Not Active = under 50% inhibition at 10 µM
[6] = molecular target: Cytochrome P450 2C19 (Homo sapiens, UniProt P33261); conditions: bti-tn-5b1-4; note: in other assays of this panel Not Active means under 50% inhibition at 10 µM
[7] = molecular target: Mu-type opioid receptor (Homo sapiens, UniProt P35372); test: DRUGMATRIX: Opiate mu (OP3, MOP) radioligand binding (ligand: [3H] Diprenorphine); format: cell membranes, CHO-K1, Membrane; conditions: cho-k1; Not Active = under 50% inhibition at 10 µM
[8] = molecular target: Vasopressin V1a receptor (Homo sapiens, UniProt P37288); format: cell membranes, Membrane; conditions: hek293; note: in other assays of this panel Not Active means under 50% inhibition at 10 µM
Chain of Vasopressin V1a receptor (P37288 whole entry): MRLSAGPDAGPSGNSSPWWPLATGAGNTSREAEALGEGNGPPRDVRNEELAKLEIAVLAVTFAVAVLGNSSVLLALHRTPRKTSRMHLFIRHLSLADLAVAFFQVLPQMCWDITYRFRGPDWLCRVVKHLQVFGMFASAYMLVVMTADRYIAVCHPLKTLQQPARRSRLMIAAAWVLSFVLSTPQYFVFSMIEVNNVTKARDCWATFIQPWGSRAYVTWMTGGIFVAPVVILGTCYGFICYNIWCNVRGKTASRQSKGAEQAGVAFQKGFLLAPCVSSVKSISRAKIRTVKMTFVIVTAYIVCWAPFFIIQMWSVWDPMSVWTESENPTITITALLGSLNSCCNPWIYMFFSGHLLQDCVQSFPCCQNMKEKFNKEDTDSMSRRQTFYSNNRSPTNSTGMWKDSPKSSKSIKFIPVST

Chain of Voltage-gated inwardly rectifying potassium channel KCNH2 (Q12809 whole entry): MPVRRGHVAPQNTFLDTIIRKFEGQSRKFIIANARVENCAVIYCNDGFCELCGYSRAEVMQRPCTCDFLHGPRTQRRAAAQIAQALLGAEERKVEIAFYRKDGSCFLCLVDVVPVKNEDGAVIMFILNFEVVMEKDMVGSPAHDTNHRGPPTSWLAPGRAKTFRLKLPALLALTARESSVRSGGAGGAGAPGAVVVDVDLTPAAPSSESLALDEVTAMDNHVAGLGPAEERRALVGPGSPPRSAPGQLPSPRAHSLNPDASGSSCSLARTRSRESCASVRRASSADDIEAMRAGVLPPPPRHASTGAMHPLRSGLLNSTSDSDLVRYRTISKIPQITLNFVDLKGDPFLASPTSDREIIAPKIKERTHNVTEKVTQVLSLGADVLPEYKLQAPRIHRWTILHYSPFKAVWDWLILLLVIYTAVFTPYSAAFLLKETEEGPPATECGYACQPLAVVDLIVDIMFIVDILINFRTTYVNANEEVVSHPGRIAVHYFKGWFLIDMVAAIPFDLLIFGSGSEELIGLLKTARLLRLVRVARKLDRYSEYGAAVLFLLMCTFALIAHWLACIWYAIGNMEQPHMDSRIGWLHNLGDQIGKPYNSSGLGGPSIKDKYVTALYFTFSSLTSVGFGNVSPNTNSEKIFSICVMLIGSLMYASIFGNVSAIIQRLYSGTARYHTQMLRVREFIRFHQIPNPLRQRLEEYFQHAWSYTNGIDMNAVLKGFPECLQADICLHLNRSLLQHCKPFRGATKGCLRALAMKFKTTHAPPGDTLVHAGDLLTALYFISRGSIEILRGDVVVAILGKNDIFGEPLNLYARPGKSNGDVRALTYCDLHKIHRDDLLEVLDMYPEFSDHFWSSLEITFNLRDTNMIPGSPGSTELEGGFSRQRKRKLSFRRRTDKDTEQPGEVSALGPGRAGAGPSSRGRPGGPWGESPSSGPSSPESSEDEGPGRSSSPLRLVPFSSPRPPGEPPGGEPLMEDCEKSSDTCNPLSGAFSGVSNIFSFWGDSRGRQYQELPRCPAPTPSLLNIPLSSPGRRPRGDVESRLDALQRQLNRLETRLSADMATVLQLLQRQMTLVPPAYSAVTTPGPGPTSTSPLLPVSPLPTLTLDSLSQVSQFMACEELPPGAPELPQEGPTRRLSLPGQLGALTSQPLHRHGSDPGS
Chain of Mu-type opioid receptor (P35372 whole entry): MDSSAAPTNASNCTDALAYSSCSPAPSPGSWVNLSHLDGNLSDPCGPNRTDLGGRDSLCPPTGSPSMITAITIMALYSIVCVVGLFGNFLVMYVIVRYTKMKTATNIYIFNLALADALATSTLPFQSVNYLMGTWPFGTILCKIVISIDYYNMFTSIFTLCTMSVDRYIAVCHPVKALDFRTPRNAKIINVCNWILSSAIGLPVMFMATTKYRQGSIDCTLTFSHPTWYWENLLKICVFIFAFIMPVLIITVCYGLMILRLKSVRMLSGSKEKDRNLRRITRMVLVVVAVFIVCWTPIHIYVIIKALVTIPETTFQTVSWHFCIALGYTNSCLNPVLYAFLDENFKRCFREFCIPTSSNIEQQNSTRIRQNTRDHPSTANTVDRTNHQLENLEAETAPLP
Chain of Cytochrome P450 2C19 (P33261 whole entry): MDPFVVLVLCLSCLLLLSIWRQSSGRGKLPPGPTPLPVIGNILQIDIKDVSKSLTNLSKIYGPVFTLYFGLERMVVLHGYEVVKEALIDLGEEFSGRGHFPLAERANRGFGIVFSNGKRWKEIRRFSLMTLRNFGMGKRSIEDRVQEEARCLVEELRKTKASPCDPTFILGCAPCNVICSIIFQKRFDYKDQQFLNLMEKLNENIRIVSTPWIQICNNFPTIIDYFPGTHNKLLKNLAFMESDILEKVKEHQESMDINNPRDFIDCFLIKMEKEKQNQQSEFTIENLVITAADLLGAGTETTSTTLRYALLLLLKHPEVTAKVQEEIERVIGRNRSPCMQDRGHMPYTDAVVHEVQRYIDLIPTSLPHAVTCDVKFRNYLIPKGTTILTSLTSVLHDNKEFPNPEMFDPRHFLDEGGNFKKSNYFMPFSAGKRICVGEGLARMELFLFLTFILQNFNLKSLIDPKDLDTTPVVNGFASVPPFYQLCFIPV

COc1ccc2c(c1)c(CC(=O)O)c(C)n2C(=O)c1ccc(Cl)cc1 [INDOMETHACIN]
Not Active: IC50 [1] | IC50 [2] | IC50 [3] | IC50 [4] | Ki [4] | IC50 [5] | Ki [5] | IC50 [6] | Ki [6] | IC50 [7] | IC50 [8]

CCc1c2c(nc3ccc(OC(=O)N4CCC(N5CCCCC5)CC4)cc13)-c1cc3c(c(=O)n1C2)COC(=O)[C@]3(O)CC [IRINOTECAN]
Not Active: IC50 [1] | IC50 [2] | IC50 [3] | IC50 [4] | Ki [4] | IC50 [5] | Ki [5] | IC50 [6] | Ki [6] | IC50 [7] | IC50 [8]

CC(C(=O)O)c1cccc(C(=O)c2ccccc2)c1 (configuration not stated) [KETOPROFEN]
Not Active: IC50 [1] | IC50 [2] | IC50 [3] | IC50 [4] | Ki [4] | IC50 [5] | Ki [5] | IC50 [6] | Ki [6] | IC50 [7] | IC50 [8]

Nc1ccn([C@@H]2CS[C@H](CO)O2)c(=O)n1 [LAMIVUDINE]
Not Active: IC50 [1] | IC50 [2] | IC50 [3] | IC50 [4] | Ki [4] | IC50 [5] | Ki [5] | IC50 [6] | Ki [6] | IC50 [7] | IC50 [8]

O=S(=O)([O-])CCS.[Na+] [MESNA]
Not Active: IC50 [1] | IC50 [2] | IC50 [3] | IC50 [4] | Ki [4] | IC50 [5] | Ki [5] | IC50 [6] | Ki [6] | IC50 [7] | IC50 [8]

C#C[C@]1(O)CC[C@H]2[C@@H]3CCc4cc(OC)ccc4[C@H]3CC[C@@]21C [MESTRANOL]
Not Active: IC50 [1] | IC50 [2] | IC50 [3] | IC50 [4] | Ki [4] | IC50 [5] | Ki [5] | IC50 [6] | Ki [6] | IC50 [7] | IC50 [8]

CC(=O)Nc1cccc(O)c1 [METACETAMOL]
Not Active: IC50 [1] | IC50 [2] | IC50 [3] | IC50 [4] | Ki [4] | IC50 [5] | Ki [5] | IC50 [6] | Ki [6] | IC50 [7] | IC50 [8]

Cc1ncc([N+](=O)[O-])n1CCO [METRONIDAZOLE]
Not Active: IC50 [1] | IC50 [2] | IC50 [3] | IC50 [4] | Ki [4] | IC50 [5] | Ki [5] | IC50 [6] | Ki [6] | IC50 [7] | IC50 [8]

CC(C)(C(=O)c1cccnc1)c1cccnc1 [METYRAPONE]
Not Active: IC50 [1] | IC50 [2] | IC50 [3] | IC50 [4] | Ki [4] | IC50 [5] | Ki [5] | IC50 [6] | Ki [6] | IC50 [7] | IC50 [8]

Oc1ccc(OCc2ccccc2)cc1 [MONOBENZONE]
Not Active: IC50 [1] | IC50 [2] | IC50 [3] | IC50 [4] | Ki [4] | IC50 [5] | Ki [5] | IC50 [6] | Ki [6] | IC50 [7] | IC50 [8]

CC(C)(Oc1ccc(C2CCCc3ccccc32)cc1)C(=O)O (configuration not stated) [NAFENOPIN]
Not Active: IC50 [1] | IC50 [2] | IC50 [3] | IC50 [4] | Ki [4] | IC50 [5] | Ki [5] | IC50 [6] | Ki [6] | IC50 [7] | IC50 [8]

CC(C)[C@H]1CC[C@H](C(=O)N[C@H](Cc2ccccc2)C(=O)O)CC1 [NATEGLINIDE]
Not Active: IC50 [1] | IC50 [2] | IC50 [3] | IC50 [4] | Ki [4] | IC50 [5] | Ki [5] | IC50 [6] | Ki [6] | IC50 [7] | IC50 [8]

COc1ccc2[nH]c([S+]([O-])Cc3ncc(C)c(OC)c3C)nc2c1 (configuration not stated) [OMEPRAZOLE]
Not Active: IC50 [1] | IC50 [2] | IC50 [3] | IC50 [4] | Ki [4] | IC50 [5] | Ki [5] | IC50 [6] | Ki [6] | IC50 [7] | IC50 [8]

Cc1nccn1CC1CCc2c(c3ccccc3n2C)C1=O (configuration not stated) [ONDANSETRON]
Not Active: IC50 [1] | IC50 [2] | IC50 [3] | IC50 [4] | Ki [4] | IC50 [5] | Ki [5] | IC50 [6] | Ki [6] | IC50 [7] | IC50 [8]

O=C(C1CCCCC1)N1CC(=O)N2CCc3ccccc3C2C1 (configuration not stated) [PRAZIQUANTEL]
Not Active: IC50 [1] | IC50 [2] | IC50 [3] | IC50 [4] | Ki [4] | IC50 [5] | Ki [5] | IC50 [6] | Ki [6] | IC50 [7] | IC50 [8]

CCN(CC)CCOC(=O)c1ccc(N)cc1 [PROCAINE]
Not Active: IC50 [1] | IC50 [2] | IC50 [3] | IC50 [4] | Ki [4] | IC50 [5] | Ki [5] | IC50 [6] | Ki [6] | IC50 [7] | IC50 [8]

CCCN(CCC)C(=O)C(CCC(=O)O)NC(=O)c1ccccc1 (configuration not stated) [PROGLUMIDE]
Not Active: IC50 [1] | IC50 [2] | IC50 [3] | IC50 [4] | Ki [4] | IC50 [5] | Ki [5] | IC50 [6] | Ki [6] | IC50 [7] | IC50 [8]

NC(=O)c1cnccn1 [PYRAZINAMIDE]
Not Active: IC50 [1] | IC50 [2] | IC50 [3] | IC50 [4] | Ki [4] | IC50 [5] | Ki [5] | IC50 [6] | Ki [6] | IC50 [7] | IC50 [8]

OC(CCN1CCCCC1)(c1ccccc1)C1CCCCC1 (configuration not stated) [TRIHEXYPHENIDYL]
Not Active: IC50 [1] | IC50 [2] | IC50 [3] | IC50 [4] | Ki [4] | IC50 [5] | Ki [5] | IC50 [6] | Ki [6] | IC50 [7] | IC50 [8]

Cc1cc2cc3c(C)cc(=O)oc3c(C)c2o1 [TRIOXSALEN]
Not Active: IC50 [1] | IC50 [2] | IC50 [3] | IC50 [4] | Ki [4] | IC50 [5] | Ki [5] | IC50 [6] | Ki [6] | IC50 [7] | IC50 [8]

CCCC(CCC)C(=O)O [VALPROIC ACID]
Not Active: IC50 [1] | IC50 [2] | IC50 [3] | IC50 [4] | Ki [4] | IC50 [5] | Ki [5] | IC50 [6] | Ki [6] | IC50 [7] | IC50 [8]

CCC1=C[C@@H]2CN(C1)Cc1c([nH]c3ccccc13)[C@@](C(=O)OC)(c1cc3c(cc1OC)N(C)[C@H]1[C@@](O)(C(=O)OC)[C@H](OC(C)=O)[C@]4(CC)C=CCN5CC[C@]31[C@@H]54)C2 [VINORELBINE]
Not Active: IC50 [1] | IC50 [2] | IC50 [3] | IC50 [4] | Ki [4] | IC50 [5] | Ki [5] | IC50 [6] | Ki [6] | IC50 [7] | IC50 [8]
